Results from US6737057B1, “Compounds, compositions and methods for the endocytic presentation of immunosuppressive factors” (The University of Tennessee Research Corporation, priority 1997, dated 2004).
“And” between values parts separate entries of the source, which are not always exact repeats. Identical values can stand only once. “Also recorded” adds a separate entry of the source.

T1: I-A^S class II molecules (Mus musculus, UniProt P06345+P14437)
T1 sequence (P14437 1-233): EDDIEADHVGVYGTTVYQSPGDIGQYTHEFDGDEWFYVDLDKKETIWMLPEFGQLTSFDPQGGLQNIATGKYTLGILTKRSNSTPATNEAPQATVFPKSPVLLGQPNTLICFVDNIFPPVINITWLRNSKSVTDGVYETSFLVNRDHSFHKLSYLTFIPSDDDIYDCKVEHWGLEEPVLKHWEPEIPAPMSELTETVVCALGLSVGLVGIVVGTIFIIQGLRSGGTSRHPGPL
T1 sequence (P06345 28-263): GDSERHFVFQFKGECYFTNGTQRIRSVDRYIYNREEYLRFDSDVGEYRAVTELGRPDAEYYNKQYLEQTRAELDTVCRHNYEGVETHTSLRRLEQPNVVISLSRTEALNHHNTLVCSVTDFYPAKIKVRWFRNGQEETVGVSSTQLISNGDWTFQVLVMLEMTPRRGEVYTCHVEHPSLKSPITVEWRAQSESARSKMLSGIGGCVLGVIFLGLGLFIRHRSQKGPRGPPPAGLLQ


Experiments:
[1] = test system: PLP1-specific T cell hybridoma 4E3; assay: T cell hybridoma activation assay (IL-2 production), 4E3; assay type: cell-based, mouse; settings: for IL-2 production by T cell hybridoma 4E3: SJL splenocyte APCs, 0.1 μM Ig chimeras, 1 μM peptides, 1.7 μM PLP, FIG. 3A; for EC50: 4E3 hybridoma, irradiated SJL/J splenocytes, IL-2 by HT-2 3H-thymidine incorporation, FIG. 4, read-out: stimulation to half the maximum level
Description: (§1) PLP1-specific T cell hybridomas 5B6 and 4E3 and the IL-2 dependent HT-2 T helper cells were obtained from The Eunice Kennedy Shriver Center, Waltham, Mass. The 5B6 and 4E3 T cells recognize the peptide PLP1 in association with 1-A^S class II MHC and produces IL-2 when incubated with it as reported by Kuchroo et al., J. Immunol. 153:3326-3336, 1994 which is incorporated herein by reference. Conversely, Kuchroo et al. report that when stimulated with PLP1 and then with PLP-LR both 5B6 and 4E3 cells no longer produce IL-2.
(§2) Using substantially the same technique as Kuchroo et al., activation of the T cell hybridomas for various agonists was performed as follows. Irradiated (3,000 rads) splenocytes from SJL mice were used as antigen presenting cells (APCs) for this Example. The irradiated splenocytes were incubated in 96-well round bottom plates (5×10^5 cells/well/50 μl) with graded concentrations of antigens (100 μl/well). After one hour, T cell hybridomas, i.e. 5B6 of 4E3 (5×10^4 cells/well/50 μl) were added and the culture was continued overnight. Activation (or proliferation) of the T cells was assessed by measuring production of IL-2 in the culture supernatant. This was done by ^3H-thymidine incorporation using the IL-2 dependent HT-2 cells. That is, when IL-2 is present (i.e. secreted by activated T cells) the HT-2 cells proliferate, incorporating labeled thymidine from the surrounding media.
(§3) The culture media used to carry out these assays was DMEM supplemented with 10% FBS, 0.05 mM 2-mercaptoethenol, 2 mM glutamine, 1 mM sodium puryvate and 50 μg/mL gentamycin sulfate. Briefly, culture supernatants (100 μl/well) were incubated with HT-2 cells (1×10^4 cells/well/100 μl) in 96-well flat bottom plates for 24 hours. Subsequently 1 μCi ^3H-thymidine was added per well and the culture was continued for an additional 12-14 hours. The cells were then harvested on glass fiber filters and the non incorporated ^3H-thymidine was washed away. Incorporated thymidine was then counted using the trace 96 program and an Inotech β counter. It will be appreciated that those wells containing higher levels of IL-2 (secreted by the activated T cell hybridoma lines) will induce higher levels of HT-2 cell proliferation and register increased levels of ^3H-thymidine incorporation.
Specifically, different concentrations of the three antigens (i.e. agonists) were incubated with irradiated SJL/J splenocytes which were subsequently associated with 4E3 T cell hybridomas. IL-2 production was measured by ^3H-thymidine incorporation using the IL-2 dependent HT-2 cells as described in Example VI. Each point represents the mean of triplicates.

[2] = test system: PLP1-specific T cell hybridoma 5B6; assay: T cell hybridoma activation assay (IL-2 production), 5B6; assay type: cell-based, mouse; settings: SJL splenocyte APCs; 0.1 μM Ig chimeras, 1 μM peptides, 1.7 μM PLP; FIG. 3B
Description: as §1, §2, §3

[3] = test system: 4E3 T cell hybridomas; assay: Prepulsed proliferation assay: antagonism of agonist mediated T cell activation; assay type: cell-based, mouse; set-up: key to T cell antagonism, Stimulator (Agonist) PLP1 / T cell antagonism, Stimulator (Agonist) PLP / T cell antagonism, Stimulator (Agonist) Ig-PLP1: +: a plus sign indicates inhibition of IL-2 production and therefore antagonism; −: a minus sign indicates little or no inhibition of IL-2 production and therefore little or no antagonism; settings: for antagonism of Ig-PLP1 mediated T cell activation (IL-2 production): agonist 0.05 μM Ig-PLP1, FIG. 5B; for control thymidine incorporation (agonist, no antagonist): 1 μM PLP1 peptide, 0.05 μM Ig-PLP1 or 7 μM PLP, background not deducted
Description: Irradiated (3,000 rads) SJL splenocytes (used as APCs) were incubated in 96-well round bottom plates (5×10^5 cells/well/50 μl) with the selected agonist (1 μM PLP1 peptide, 0.05 μM Ig-PLP1 or 7 μM PLP) and various concentrations of antagonist (100 μl/well) for 1 hour. Subsequently, 4E3 T cell hybridomas (5×10^4 cells/well/50 μl) were added and the culture was continued overnight. IL-2 production in the supernatant, determined as in Example VI using HT-2 cells, was used as measure of T cell activation.
Cpm values obtained when the APCs were incubated with the agonist but no antagonist was used as control thymidine incorporation. This value was 7,503±1,302 for Ig-PLP1; 31,089±3,860 for PLP1 peptide; and 8,268±915 for PLP. The cpm value obtained when the APCs were incubated with no agonist or antagonist was used as background (BG). This value was 1,560±323 for Ig-PLP1; 2,574±290 for PLP1 peptide; and 2,127±177 for PLP. The percent control thymidine incorporation was calculated as follows: [(cpm obtained in the presence of test antagonist)−(BG)]/[(cpm control thymidine incorporation value)−(BG)]. Each point represents the mean of triplicates.

[4] = test system: PLP1 specific T cells; assay: In vivo inhibition of T cell response to PLP1 on co-administration with Ig-PLP1; set-up: species or system SJL mice
Description: Mice were co-immunized with mixtures of either 50 μg Ig-PLP1 and 150 μg Ig-PLP-LR or 50 μg Ig-PLP1 combined with 150 μg Ig-W. In particular, individual mice from three groups (4 mice per group) were injected sc, as in Example X with a 200 μl mixture (PBS/CFA, 1:1 v/v) containing one of the following mixtures: 50 μg Ig-PLP1 and 150 μg Ig-PLP-LR; 50 μg Ig-PLP1 and 150 μg Ig-W; or Ig-PLP1 and 100 μg PLP-LR peptide. Splenic and lymph node T cell responses were analyzed at day 10 post immunization using the protocol set forth in Example X. The lymph node cells were assayed at 4×10^5 cells/well and the spleen cells at 10×10^5 cells/well. The agonist ligand was PLP1 at 15 μg/mL. Results for the lymph node and spleen cells, shown in FIGS. 8A and 8B respectively and summarized in Table 2 below, represent the mean±SD of triplicates after deduction of background cpm obtained with no agonist in the media.
(mean cpm of triplicates obtained with PLP1 stimulation−mean cpm triplicate BG)/(mean cpm of triplicates obtained with PPD−mean cpm triplicate BG)×100

[5] = test system: PLP-LR specific T cells; assay: In vivo T cell response to PLP-LR after co-administration with Ig-PLP1; set-up: species or system SJL mice; settings: co-administered with Ig-PLP1; lymph node and spleen cells, PLP-LR 15 μg/mL; FIG. 9
Description: Lymph node and spleen cells were obtained in the same manner as set forth in Example X following co-administration of Ig-PLP1 and Ig-PLP-LR. Proliferative responses in individual mice were also measured using the methods set out in the previous Example following in vitro stimulation with either free PLP1 peptide or PLP-LR peptide at 15 μg/mL. The results of the assays using lymph node and spleen cells are detailed in FIGS. 9A and 9B respectively.

[6] = molecular target: T1, I-A^S class II molecules; settings: cited from earlier work
[7] = test system: T cell hybridomas; settings: reported by Kuchroo et al.; cited from earlier work
[8] = test system: SJL mice; settings: cited from earlier work

Molecule	IL-2 production by T cell hybridoma 4E3 [1]	IL-2 production by T cell hybridoma 5B6 [2]	antagonism of Ig-PLP1 mediated T cell activation (IL-2 production) [3]	IC50 ([3]; agonist 1 μM PLP1 peptide, FIG. 5A, read-out: Inhibition of IL-2 production to half the maximum level (60% control thymidine incorporation)) [µM]	antagonism of native PLP mediated T cell activation (IL-2 production) ([3]; agonist 7 μM PLP, FIG. 5C)	T cell antagonism, Stimulator (Agonist) Ig-PLP1 ([3]; agonist Ig-PLP1, summary of FIG. 5)	T cell antagonism, Stimulator (Agonist) PLP1 ([3]; agonist PLP1, summary of FIG. 5)	T cell antagonism, Stimulator (Agonist) PLP ([3]; agonist PLP, summary of FIG. 5)	PLP1/PPD (%) ([4]; co-administered sc with 50 μg Ig-PLP1 (150 μg Ig or 100 μg peptide), day 10, individual mice 1-4, PLP1 specific relative to PPD specific proliferation, listed as PLP-LR peptide)	reduction of immune response to PLP1 peptide ([4]; co-administered with Ig-PLP1, lymph node and spleen cells, FIG. 8)	T cell response to PLP-LR [5]	binding to I-A^S class II molecules [6]	effect on IL-2 production of T cell hybridomas stimulated with PLP1 [7]	EC50 [1] [µM]	control thymidine incorporation (agonist, no antagonist) [3]	encephalitogenic activity / EAE induction [8]	antagonism of PLP1 peptide mediated T cell activation (IL-2 production) ([3]; agonist 1 μM PLP1 peptide, FIG. 5A)
HSLGKLLGRPNKF [PLP-LR, analog of PLP1 in which Trp144 and His147 were replaced with Leu and Arg]	did not stimulate 5B6 and 4E3 to produce significant levels of IL-2	did not stimulate 5B6 and 4E3 to produce significant levels of IL-2	did not show any significant antagonism; also recorded: failed to inhibit T cell activation	9	failed to inhibit T cell activation	−	+	−	93% and 100% and 81% and 91%	no indication that the PLP1 response was reduced; also recorded: no evident reduction in the proliferative response to PLP1	induction of PLP-LR-specific response	bind well	inhibits IL-2 production				
HSLGKWLGHPNKF [PLP1, a peptide fragment of PLP comprising aa residues 139-151]	substantial levels of IL-2	substantial levels of IL-2										bind well		0.6	31,089±3,860 cpm	encephalitogenic	
NTWTTCQSIAFPSK [PLP2, a peptide fragment of PLP comprising aa residues 178-191]	did not induce the production of IL-2	did not induce the production of IL-2	did not show any significant antagonism									binds				induces EAE	antagonist effects were not observed
proteolipid protein (protein, UniProt P60203 2-277, looked up, native proteolipid protein purified from rat brain) Myelin proteolipid protein: GLLECCARCLVGAPFASLVATGLCFFGVALFCGCGHEALTGTEKLIETYFSKNYQDYEYLINVIHAFQYVIYGTASFFFLYGALLLAEGFYTTGAVRQIFGDYKTTICGKGLSATVTGGQKGRGSRGQHQAHSLERVCHCLGKWLGHPDKFVGITYALTVVWLLVFACSAVPVYIYFNTWTTCQSIAFPSKTSASIGSLCADARMYGVLPWNAFPGKVCGSNLLSICKTAEFQMTFHLFIAAFVGAAATLVSLLTFMIAATYNFAVLKLMGRGTKF	substantial levels of IL-2	substantial levels of IL-2												0.5	8,268±915 cpm		
